Measurements as given in a melting point compilation (Tetko et al.; mined from patent text by program, amines drawn as free bases though some values may be those of a salt).

First: Nc1cc(Br)c(F)c(Cl)c1F
Second: O=Cc1cc2cc(O)c(Cl)c(Cl)c2s1
The melting point of the first is lower: 86 to 88 °C for the first, 197 to 198 °C for the second.

First: N=C(N)NCCc1ccc(OCCC2Oc3ccccc3N(Cc3cc(Cl)cc(Cl)c3)C2=O)cc1 (stereo not given)
Second: O=c1ncn(Cc2ccc(Cl)cc2)c2cc(-c3ccc(OCc4ccccn4)cc3)sc12
The melting point of the first is lower: 116 to 117 °C for the first, 257 to 259 °C for the second.

First: C=CCc1cc(CCC(=O)OCC)ccc1C#CC1(O)CN2CCC1CC2 (stereo not given)
Second: CCOC(=O)CCC1Cc2cc(O)ccc2NC1=O (stereo not given)
The melting point of the first is lower: 55 to 56 °C for the first, 138 °C for the second.

Compared with `Cc1c(NC(=O)CC(C)(C)C)cc2c(c1C)OC(C)(C)C2c1ccccc1OC(F)(F)F` (stereo not given), `COC(=O)C1=C(C)N(C)C(C)C(C(=O)OC)=C1c1ccc(C(F)(F)F)cc1` (stereo not given) is lower in melting point: 155 to 156 °C for the first, 94 to 95 °C for the second.

First: O=C(NO)[C@H]1CN(C(=O)Nc2ccccc2)CCN1S(=O)(=O)c1ccc(-c2ccc(F)cc2)s1
Second: Cc1ccccc1OCC(=O)Nc1ccc(C(=O)N2CCCCc3ccccc32)cc1
The melting point of the first is higher: 187 to 188 °C for the first, 172 to 175 °C for the second.

First: CCN(CC)Cc1ccc2[nH]c(-c3ccccc3F)cc(=O)c2c1
Second: CCOC(=O)C1Cc2c([nH]c3ccc(C)cc23)C(c2ccccc2)N1 (stereo not given)
The melting point of the first is higher: 184 to 185 °C for the first, 128 to 130 °C for the second.

First: Cc1cc(-c2cc(C(F)(F)F)nc(-n3cnc(-c4ccc(S(N)(=O)=O)cc4)c3)n2)ccc1C(F)(F)F
Second: CCOc1cc(-c2cc(C(F)(F)F)n3ncc(C(=O)Nc4cccc(S(=O)(=O)NC5CC5)c4)c3n2)ccc1C(F)(F)F
The melting point of the first is higher: 287 °C for the first, 225 °C for the second.

Compared with `CC1(C)CN(c2cccc(-c3cnc4[nH]cc(C(=O)C(C)(C)C)c4n3)c2)C1`, `Cc1ccc(-c2c[nH]c(-c3ccc4c(c3)C(C)(C)CCC4(C)C)c2)cc1` is lower in melting point: 227 to 229 °C for the first, 190 to 192 °C for the second.

First: CC(C)(C)OC(=O)N1CCCN(c2ccc(N)cc2C#N)CC1
Second: COc1ccccc1N1CCN(C(=O)[C@H](N)CC2CCCCC2)CC1
The melting point of the first is lower: 38 °C for the first, 165 to 168 °C for the second.

Compared with `Cc1c(Cl)cccc1S(=O)(=O)Nc1nc(C(C)(C)C)cs1`, `COP(=O)(COS(=O)(=O)c1c(C)cccc1Cl)OC` is lower in melting point: 178 °C for the first, 55 to 57.5 °C for the second.

`CC1(C)CCCC(C)(C)N1Cc1ccc2cc(NC(=O)c3ccc(-c4ccccc4)cc3)ccc2n1` and `O=C(Nc1ccc2nc(CN3CCCC3)ccc2c1)c1ccc(-c2ccc(Cl)cc2)cc1` cannot be ordered by melting point: 200 to 201 °C for the first, 200 to 202 °C for the second.

First: O=C(O)C(=O)CC(=O)c1cccn1Cc1cccc(F)c1F
Second: Fc1ccc(-c2nc(=S)n(Cc3ccccc3)[nH]2)c(Cl)c1
The melting point of the first is higher: 154 to 156 °C for the first, 135 to 136 °C for the second.

First: O=C1CC(c2ccccc2)c2ccc(Cl)cc21 (stereo not given)
Second: NS(=O)(=O)c1cccc(N/C=C2\C(=O)Nc3ccccc32)c1
The melting point of the first is lower: 84 to 92 °C for the first, greater than 250 °C for the second.

`CCCC1CCC(O)(c2ccc(-c3ccccc3)c(F)c2)CC1` (stereo not given) and `CCCCOC(=O)C1Oc2ccccc2Cc2ccccc2O1` cannot be ordered by melting point: 45 to 72 °C for the first, 63 to 66 °C for the second.

Compared with `Nc1ccc2c(c1)CNCCS2`, `NC1=Nc2ccc(Br)cc2C2CCCC12F` (stereo not given) is higher in melting point: 110 to 111 °C for the first, 220 °C for the second.

Compared with `COC(=O)c1ccc(Cl)c(NN)c1`, `O=C(O)CCc1ccc(Cl)cc1F` is lower in melting point: 218 to 220 °C for the first, 83 to 85 °C for the second.

First: CC1(C)CNC(=O)c2cc3nc(-c4ccncc4)[nH]c3cc21
Second: CC(=O)c1ccc2c(c1)C(c1ncccc1C)CC(C)(C)O2 (stereo not given)
The melting point of the first is higher: 231 to 234 °C for the first, 87 to 88 °C for the second.

Compared with `Cc1ccc(Oc2ccc(C(=N)NN)cc2)c(O)c1`, `COc1ccc(Sc2cc3ccccc3nn2)cc1` is lower in melting point: greater than 260 °C for the first, 108 °C for the second.

Compared with `COc1ccc2c(c1)OC(CNCCCOc1cnc3ccccc3c1)CC2` (stereo not given), `CCCCOC(=O)CNC(=O)c1nc2ccc(OC)cc2cc1OCc1ccccc1` is lower in melting point: 132 to 134 °C for the first, 90 to 92 °C for the second.

First: COc1ccc(CNc2nnc(N(C)CCCO)c3ccc(Cl)cc23)cc1Cl
Second: COc1ccc(CNc2nc(N3CCC[C@H]3CO)cnc2C(=O)O)cc1Cl
The melting point of the first is lower: 115 to 117 °C for the first, 169 to 171 °C for the second.

First: Cc1cc(NC(=O)C(C)(O)COc2cccc(F)c2)ccc1[N+](=O)[O-] (stereo not given)
Second: NC(=O)c1cccc([N+](=O)[O-])c1N
The melting point of the first is lower: 83 to 86 °C for the first, 238 to 239 °C for the second.

First: COc1ccc(OC)c2c1C(=O)c1c(O)c3c(c(O)c1C2=O)CC(=O)CC3
Second: CCc1c(OC)cc(C2CN(C)CC/C2=C\C(=O)OC)cc1OC (stereo not given)
The melting point of the first is higher: 173 to 174 °C for the first, 110 to 112 °C for the second.

Compared with `OCCOc1nc2ncnc(NCc3ccco3)c2[nH]1`, `Cc1c(CNc2cc(CO)cc(CO)c2)nnn1Cc1ccc(Cl)c(Cl)c1` is lower in melting point: 182 to 184 °C for the first, 120 °C for the second.

First: CNC(=O)NC1CCCCc2sccc21 (stereo not given)
Second: Nc1ccccc1C(=O)C1CCCCC1
The melting point of the first is higher: 220 to 222 °C for the first, 74 to 75 °C for the second.

Compared with `C#CCN(c1ccc(C(=O)O)cc1)C1CCc2cc3nc(COC(=O)C(C)(C)C)[nH]c(=O)c3cc21` (racemic), `O=C(O)c1cn(C2CC2)c2c(F)c(N3CC4CC3CN4Cc3ccc([N+](=O)[O-])cc3)c(F)cc2c1=O` (stereo not given) is higher in melting point: 133 °C for the first, 177 to 182 °C for the second.

Compared with `CCOC(=O)/C=C/c1nc(COc2ccc(COc3nn(-c4ccccc4)cc3/C=C\c3csc(CC)n3)cc2OC)c(C)o1`, `COc1cc(COc2nn(-c3ccccc3)cc2/C=C/C(=O)N2CCOCC2)ccc1OCc1nc(-c2ccco2)oc1C` is higher in melting point: 95 to 96 °C for the first, 180 to 181 °C for the second.

First: C=CCC1COC(CC)(CC(=O)OC)c2[nH]c3c(CC)cccc3c21 (stereo not given)
Second: CCc1cc(C(=O)c2ccccc2Cl)c(-n2c(C)nnc2CO)s1
The melting point of the first is lower: 92 to 93 °C for the first, 140 to 141 °C for the second.

First: COc1cc(COc2cc(CCC(=O)O)n(-c3ccccc3)n2)ccc1OCc1nc(-c2ccccc2)oc1C
Second: Cc1oc(-c2ccc(-c3ccc(-c4nc(CC(=O)OCc5ccccc5)c(C)o4)cc3)cc2)nc1CC(=O)OCc1ccccc1
The melting point of the first is lower: 157 to 158 °C for the first, 162 to 168 °C for the second.

Compared with `CCS(=O)(=O)CCOc1cc(CCCOc2nn(Cc3ccccc3)cc2CC(=O)O)n(Cc2ccc(Cl)cc2Cl)n1`, `Clc1ccc(C(Cn2ccnc2)OCc2cc(Cl)nc3ccccc23)c(Cl)c1` (stereo not given) is higher in melting point: 100 to 101 °C for the first, 180 to 181 °C for the second.

First: COC(=O)C1Cc2cncn2C(=O)N1 (stereo not given)
Second: Cc1nn(C(=O)NC(C)(C)CCc2ccccc2Cl)c(=O)n1N
The melting point of the first is higher: 159 to 164 °C for the first, 102 °C for the second.

Compared with `Cc1cccc(-c2[nH]c(C(C)C)nc2-c2ccc(F)c(-c3c[nH]nn3)c2)n1`, `CCc1noc(-c2c[nH]c(-c3cccc(Oc4ccc(Br)cn4)c3)n2)n1` is lower in melting point: 233 to 235 °C for the first, 141 to 142 °C for the second.

Compared with `CN1CC(C(=O)N(C)CCCc2ccc(Cl)c(Cl)c2)=C(O)C1=O`, `CCCc1c(OCC(O)COc2ccc(CC(=O)O)cc2Br)ccc(C(C)=O)c1O` (stereo not given) is lower in melting point: 138 to 140 °C for the first, 84 °C for the second.

Compared with `COc1nnc(SCC2=C(C(=O)O)N3C(=O)C(NC(=O)Cc4csc(=O)s4)C3SC2)s1` (stereo not given), `CC(=O)N1CCN(c2cc3c(c(N)c2F)c(=O)c(C(=O)O)cn3C2CC2)CC1C` (stereo not given) is higher in melting point: 208 °C for the first, 269 to 271 °C for the second.

First: CSc1nn(C)c2ccccc2c1=O
Second: CC(Cl)c1nc2c(C(F)(F)F)cccc2c(=O)o1 (stereo not given)
The melting point of the first is higher: 173 to 175 °C for the first, 112 °C for the second.

Compared with `CC(C)(C)OC(=O)NCCNC(=O)c1nc(Cl)sc1Br`, `C=Cc1c(C)c2c(c(O)c1C/C=C1\CCCC1CC(=O)O)C(=O)OC2` (stereo not given) is lower in melting point: 142 to 144 °C for the first, 141 to 142 °C for the second.

Compared with `CCCCCCCCc1c(N)nc(S(C)(=O)=O)nc1CC`, `CCc1c(C)nc2c(O)cccn2c1=O` is higher in melting point: 90 to 92 °C for the first, 128 °C for the second.

First: Nc1nc2ccccc2c2c1ncn2CCCCNC(=O)c1ccccc1
Second: O[C@H](CN[C@H]1CCCc2ccccc21)COc1cccc2ccccc12
The melting point of the first is higher: 210 to 212 °C for the first, 107 to 109 °C for the second.

First: CC(C)N(C(=O)n1oc(=O)[nH]c1=O)c1ccc(F)cc1
Second: CC(C)c1oc(-c2ccc(F)cc2)nc1CC(=O)O
The melting point of the first is lower: 94 to 95 °C for the first, 137 to 138 °C for the second.

Compared with `CCCCC=NNC1=NCCc2ccccc21`, `O=C1[C@H]2CCC[C@H]2Nc2ccccc2N1Cc1cccc([N+](=O)[O-])c1` (relative stereo) is higher in melting point: 147 to 148 °C for the first, 169 to 171 °C for the second.

Compared with `Cc1ccc([N+](=O)[O-])cc1S(=O)(=O)N(C)C`, `CC1=C(/C=C/C(C)=C/C=C/C(C)=C/C(=O)OCOC(=O)Oc2ccc([N+](=O)[O-])cc2)C(C)(C)CCC1` is lower in melting point: 72 to 74 °C for the first, 35 to 36 °C for the second.

Compared with `N#CC(C#N)CC(CC(F)(F)C(F)(F)C(F)(F)C(F)F)S(=O)(=O)C(F)(F)F` (stereo not given), `CCC(CC)c1nn(-c2ccc(C(F)(F)F)cn2)cc1CCCOc1c(C)cccc1CC(=O)O` is lower in melting point: 144 to 146 °C for the first, 125 to 126 °C for the second.

First: CC(C#Cc1ccc(OCc2ccccc2)cc1)N(O)C(N)=O (stereo not given)
Second: CN(C)CCC1=Cc2ccc(OCc3ccc(-c4ccccc4)cc3)cc2CC1
The melting point of the first is higher: 154 to 156 °C for the first, 123 to 126 °C for the second.

Compared with `C/C(=C(\C#N)C(N)=S)N1CCCOCC1`, `N#CCNC(=O)C1(NC(=O)c2ccc(Cn3ccnc3)cc2)CCCCC1` is higher in melting point: 151 to 156 °C for the first, 194 to 196 °C for the second.

Compared with `O=C1NC(=O)c2ccc(I)cc2/C1=C/NCc1ccc(-n2cccc2)c(O)c1`, `N#Cc1ccc(CCn2ccn([C@H]3CCc4c(F)cc(F)cc4C3)c2=S)cc1` is lower in melting point: 230 to 231 °C for the first, 130 to 133 °C for the second.

First: CC(C)Sc1cc([Si](C)(C)C)oc1C(=O)Nc1nnn[nH]1
Second: CCCn1c(=O)c2c(nc(/C=C/c3ccc(OC)c(OC(C)=O)c3)n2C)n(CCC)c1=O
The melting point of the first is lower: 181 to 182 °C for the first, 201 to 202 °C for the second.

Compared with `COc1cccc(-c2cn(N)c(N)n2)c1`, `Cc1[nH]c(=O)ccc1-c1ccc2nccn2c1` is higher in melting point: 181 to 182 °C for the first, 290 to 292 °C for the second.

First: CCC(C(=O)c1ccc(Cl)cc1)n1ncn(-c2ccc(N3CCN(c4nc5ccccc5s4)CC3)cc2)c1=O (stereo not given)
Second: Cc1ccc(-c2cccc(/C=C/C(=O)Nc3ccc(Cn4ccnc4)cc3)c2)cc1
The melting point of the first is lower: 162 °C for the first, 198 to 200 °C for the second.

First: CS(=O)(=O)c1ccc(-c2coc(=O)n2-c2ccc(F)cc2)cc1
Second: COc1ccccc1Cc1n[nH]c2c1c(=O)n(-c1cccc(OC(F)(F)F)c1)c1ncccc21
The melting point of the first is lower: 152 to 153 °C for the first, 243 to 245 °C for the second.

First: O=c1[nH]c(N2CCN(CCO)CC2)cc2c(F)cccc12
Second: O=C(O)c1cn(-c2ccnc3ccccc23)cc1C1CC1
The melting point of the first is higher: 207 to 208 °C for the first, 195 °C for the second.

Compared with `Clc1ccc(Nc2ccc(Br)cn2)cc1`, `C=CCN(CC=C)C(=O)C1=C(C(=O)Nc2cc(OC3CCCC3)c(Cl)cc2F)CCCC1` is lower in melting point: 112 to 116 °C for the first, 74 to 76 °C for the second.
